The text below walks through data of US20180311297A1, “PHARMACEUTICAL COMPOSITION FOR INCREASING CONTENT AND AVAILABILITY OF CYCLIC ADENOSINE MONOPHOSPHATE IN A BODY AND PREPARATION THEREOF” (priority 2012, published 2018).

The structures appear in SMILES notation. Structures can show the parent of a compound that is named as a salt.

Series [1] has as its system depression patients. Conditions: STAR*D study, over 2800 depression patients; cited from earlier work.
The test system of series [2] is phosphodiesterase 4 (PDE4). The following applies: cited from earlier work.
In series [3] the test system is cAMP. Briefly: level of cAMP in hippocampus of normal rats 8 hours after administration (ELISA). It counts as in vivo, rat. Conditions: 8 hours after intragastric 5 mg/kg (positive control drug). The method, then: 8 hours after normal rats were intragastrically administered with the pharmaceutical of Embodiment 1, their hippocampi were taken out. The variations in the levels of cAMP and phospho-CREB (p-CREB) in the hippocampus were determined using enzyme-linked immunosorbent assay (ELISA), the variations on the activities of the cAMP-dependent PKA were determined using bioluminescent assay, and the variations in the activities of PDE were determined using a fluorescence method. […] The experimental data were statistically analyzed and plotted using Origin […].5 software. 2. […] The sample was determined using the ParameterTM Cyclic AMP Assay ELISA kit (R&D Systems, Inc., U.S.). The sample was defrosted to room temperature, and the level of cAMP in the sample was determined using competitive ELISA. The value of optical density (OD) of the sample was determined at 450 nm using the multi-mode microplate reader, and the level of cAMP in the sample was calculated according to the standard curve. 5.1 The level of cAMP in the rat's hippocampus: The cAMP concentration in the homogenate of the rat's hippocampus was determined using the ELISA assay, and the level of cAMP contained in the hippocampus tissue was obtained by dividing the […], and is presented as pmol/g tissue (referring to FIG. 5).

Series [4] deals with forced-swim rats. In words: forced-swim experiment on rats. Conditions: intragastric, one week; Embodiment 1 medium dose 30 mg/kg/d, or positive control; vs control P<0.05. The class given is in vivo, rat. An excerpt: (§1) The inventor conducted animal behavior experiments, including the tail-hang experiment on mice, the forced-swim experiment on rats, the forced-swim experiment on mice, the unpredictable long-term stimulus experiment on rats, the olfactory bulb lesion experiment on rats and others, according to the pathogenetic mechanism and clinical symptoms of depression.

For series [5], the system named is forced-swim mice. Briefly: forced-swim experiment on mice. The class given is in vivo. Conditions: intragastric, one week; Embodiment 1 medium dose 40 mg/kg/d, or positive control; vs control P<0.05.
Text: as §1

For series [6], the system named is tail-hanged mice. Briefly: tail-hang experiment on mice. It counts as in vivo. Conditions: intragastric, one week; Embodiment 1 medium dose 40 mg/kg/d, or positive control; vs control P<0.05.
Text: as §1

Series [7] relates to unpredictably long-term stressed rats. In words: unpredictable long-term stimulus (CUMS) experiment on rats: body weight measurement. The class given is in vivo, rat. The following applies: CUMS model rats, 21 consecutive days; low dose of Embodiment 1 (15 mg/kg/d) or positive group; compared to control group. An excerpt: (§2) The inventor conducted animal behavior experiments, including the tail-hang experiment on mice, the forced-swim experiment on rats, the forced-swim experiment on mice, the unpredictable long-term stimulus experiment on rats, the olfactory bulb lesion experiment on rats and others, according to the pathogenetic mechanism and clinical symptoms of depression. 1.2 The pharmaceutical composition of Embodiment 1 was intragastrically administered to rats under the chronic unpredictable mild stress (CUMS) model with the dose of 15 mg/kg/d, 30 mg/kg/d and 60 mg/kg/d for 21 consecutive days.

The test system is the same in series [8]. Briefly: unpredictable long-term stimulus (CUMS) experiment on rats: sucrose intake measurement. The class given is in vivo, rat. The following applies: CUMS model rats, 21 consecutive days; low dose of Embodiment 1 (15 mg/kg/d) or positive group; vs control P<0.01.
Text: as §2

For series [9] the test system is unchanged. In words: unpredictable long-term stimulus (CUMS) experiment on rats: open field box test. The class given is in vivo, rat. The following applies: CUMS model rats, 21 consecutive days; low dose of Embodiment 1 (15 mg/kg/d) or positive group; vs control P<0.01.
Text: as §2

Series [10] has the same test system. In words: unpredictable long-term stimulus (CUMS) experiment on rats: jumping test. Conditions: CUMS model rats, 21 consecutive days; low dose of Embodiment 1 (15 mg/kg/d) or positive group; vs control P<0.01. It counts as in vivo, rat.
Text: as §2

Series [11] has as its system olfactory bulb lesion model rats. Briefly: olfactory bulb lesion experiment: open field box test. It counts as in vivo, rat. Conditions: 24 consecutive days, high dose of Embodiment 1 (60 mg/kg/d) or Paroxetine of 3 mg/kg/d, compared to control group. An excerpt:
The inventor conducted animal behavior experiments, including the tail-hang experiment on mice, the forced-swim experiment on rats, the forced-swim experiment on mice, the unpredictable long-term stimulus experiment on rats, the olfactory bulb lesion experiment on rats and others, according to the pathogenetic mechanism and clinical symptoms of depression. 1.3 The pharmaceutical composition of Embodiment 1 was intragastrically administered to olfactory bulb lesion model rats with the dose of 15 mg/kg/d, 30 mg/kg/d and 60 mg/kg/d for 24 consecutive days.

Consider `Br.CN(C)CCCC1(c2ccc(F)cc2)OCc2cc(C#N)ccc21` (stereo not shown) [Celexa®], for which the remission rate result in series [1] was “about 30%”.
For the compound `COc1ccc(C(CN(C)C)C2(O)CCCCC2)cc1.Cl` (stereo not shown) [Effexor®], the remission rate result in [1] is given as “about 30%”.
Turning to `COc1ccc(C2CNC(=O)C2)cc1OC1CCCC1` (stereo not shown) [Rolipram®], in series [2] (background statement), the side effects result is recorded as “severe emesis”. For the same compound, the anti-depression effect result in series [2] (experimental results referred to in background) was “significant anti-depression effect”.
Take `CN[C@H]1CC[C@@H](c2ccc(Cl)c(Cl)c2)c2ccccc21.Cl` [Zoloft®]: the remission rate entry in series [1] is reported as “about 30%”.
Turning to `Cl.O=C1CC2(CCCC2)CC(=O)N1CCCCN1CCN(c2ncccn2)CC1` [Buspar®], the remission rate entry in [1] was “about 30%”.
As to `Fc1ccc([C@@H]2CCNC[C@H]2COc2ccc3c(c2)OCO3)cc1` [Paroxetine, Paroxetine hydrochloride], the “initiation of the cAMP-PKA-CREB (p-CREB) pathway” value in series [3] was “cannot initiate”. Moreover, in [4], the “non-movement time for the forced-swim rats” value is recorded as “significantly shorter”. Also, the “non-movement time for the forced-swim mice” value in series [5] is listed as “significantly shorter”. Besides, in series [6], the “non-movement time for the tail-hanged mice” value is listed as “significantly shorter”. The body weight gains entry in [7] was “significantly increased”. Also, the sucrose consumption result in series [8] is reported as “significantly increased”. Besides, the “horizontal movement and vertical movement” value in series [9] is given as “significantly increased”. In addition, the “number of errors in rat jumping trial” value in [10] is “significantly decreased”. The “decrease of the horizontal movement and vertical movement caused by the olfactory bulb lesion (open field box test)” value in [11] was “significantly improved”.
Consider `CC(NC(C)(C)C)C(=O)c1cccc(Cl)c1.Cl` (stereo not shown) [Wellbutrin®], for which the remission rate result in series [1] is listed as “about 30%”.
